This note sets out measurements from patent US20190289849A1, “Novel Plant Growth Regulators and Methods of Using Same” (Duke University, priority 2016, published 2019).

One assay concerns Arabidopsis thaliana. As to the kind of experiment: Primary and lateral root growth on exposure to volatile β-cyclocitral. The class given is in vivo.
The subject of the next assay is Heinz tomatoes. Briefly: Tomato primary and lateral root growth. As to conditions: tomato. The class given is in vivo. On the procedure:
Heinz tomatoes were used for all tomato experiments. Seeds were sterilized using 40% liquid bleach for 30 min, then plated on 1% MS media in 120×120×17 mm square petri dishes. Seeds were kept in the dark at room temperature for 3 days, and then exposed to 100-130 μmol/(m^2s^1) illumination and grown vertically under long-day conditions at 22° C. For treating tomatoes, β-cyclocitral, norflurazone, and D15 were added directly to the media, at the concentrations described in the figures. Norflurazone was diluted to a final concentration of 1 μM in media. Tomato phenotypes were analyzed at 6 das. To measure lateral root capacity, the primary root apical meristem of each seedling was sterilely excised at 7 days. The plants were given 3 days to grow out lateral roots, and then each emerged lateral root was counted using a dissection microscope, as described previously (Van Norman et al., Proceedings of the National Academy of Sciences of the United States of America, 2014. 111(13): p. […]-[…]). Luciferase activity was measured as previously described, using exposure times of 7 min (Moreno-Risueno, M. A., et al., Science, 2010. 329(5997): p. 1306-1311). WOX5^+ and EN7^+ primordia were counted using a stereo zoom microscope (Zeiss). Lateral and primary root lengths for Arabidopsis thaliana and tomato were measured using ImageJ (National Institutes of Health) software. 3D images of rice root architecture were captured using a 360° revolving platform and these images were analyzed using GiA Roots (www.giaroots.org), as described previously by Topp (2013). Primary root lengths were determined by dissecting the root and measuring the length with a ruler. Shoot mass was measured after removing the shoots and drying them for 10 days at 60° C.

Consider `CC1=C(C=O)C(C)(C)CCC1` [β-cyclocitral], for which, in the assay on Arabidopsis thaliana (exogenous volatile application, in the presence and absence of D15), the “primary and lateral root emergence” value was “increased”. Moreover, the values for the lateral root length result in the assay with Arabidopsis thaliana (with or without co-treatment of D15) and in the assay with Heinz tomatoes (dose-dependent) were “increases” and “significant increase”, respectively. Also, the “rescue of D15 primary root inhibition” value with Heinz tomatoes (D15 plus exogenous β-cyclocitral) is recorded as “could not be rescued”. Further, the “rescue of primary root growth in norflurazone-treated plants” value in the assay with Heinz tomatoes (norflurazone plus β-cyclocitral) was “fully rescued”. The primary root length entry in the assay with Heinz tomatoes (uninhibited plants) was “significantly increased”.
